Measurements from US20220169628A1 (University of Florida Research Foundation, Incorporated, priority 2019, published 2022).
Read-outs that look alike come from different tables or passages of the source.

What was measured:
[1] = test system: MOLT-4 cells; assay: Cell viability assay, MTS, 48 h, MOLT-4; format: cell-based; conditions: 48 hours, read-out: IC50 (48 hours) MOLT-4
Description: (§1) Acute lymphoblastic leukemia cells (MOLT-4 and RS4; 11) or small cell lung cancer (NCI-H146 or simply H146) were incubated with increasing concentrations of Bcl-xL degraders for 48 h. Cell viability was measured by tetrazolium-based MTS assay.

[2] = test system: RS4;11 cells; assay: Cell viability assay, MTS, 48 h, RS4;11; format: cell-based; conditions: 48 hours, read-out: IC50 (48 hours) RS4;11
Description: as §1

Row | Molecule | IC50 ([1]; Homo sapiens, MOLT-4, 48 h) | IC50 ([2]; Homo sapiens, RS4-11, 48 h) | IC50 [1] | IC50 [2]
1 | (2S,4R)-1-((S)-2-(4-(4-(4-chlorophenyl)-5-((4-(4-(((4-(((R)-4-morpholino-1-(phenylthio)butan-2-yl)amino)-3-((trifluoromethyl)sulfonyl)phenyl)sulfonyl)carbamoyl)phenyl)piperazin-1-yl)methyl)-3,6-dihydropyridin-1(2H)-yl)-4-oxobutanamido)-3,3-dimethylbutanoyl)-4-hydroxy-N—((S)-1-(4-(4-methylthiazol-5-yl)phenyl)ethyl)pyrrolidine-2-carboxamide [Example 1] | – | – | 150 to 500 nM | 150 to 500 nM
2 | (2S,4R)-1-((S)-2-(10-(4-(4-chlorophenyl)-5-((4-(4-(((4-(((R)-4-morpholino-1-(phenylthio)butan-2-yl)amino)-3-((trifluoromethyl)sulfonyl)phenyl)sulfonyl)carbamoyl)phenyl)piperazin-1-yl)methyl)-3,6-dihydropyridin-1(2H)-yl)-10-oxodecanamido)-3,3-dimethylbutanoyl)-4-hydroxy-N—((S)-1-(4-(4-methylthiazol-5-yl)phenyl)ethyl)pyrrolidine-2-carboxamide [Example 5] | – | – | < 50 nM | < 50 nM
3 | Cc1ncsc1-c1ccc([C@H](C)NC(=O)[C@@H]2C[C@@H](O)CN2C(=O)[C@@H](NC(=O)CCCCCC(=O)N2CCN(C(=O)C3(C)CCC(c4ccc(Cl)cc4)=C(CN4CCN(c5ccc(C(=O)NS(=O)(=O)c6ccc(N[C@H](CCN7CCOCC7)CSc7ccccc7)c(S(=O)(=O)C(F)(F)F)c6)cc5)CC4)C3)CC2)C(C)(C)C)cc1 (stereo partly drawn) [compound 64, (2S,4R)-1-((2S)-2-(7-(4-(4′-chloro-4-methyl-6-((4-(4-(((4-(((R)-4-morpholino-1-(phenylthio)butan-2-yl)amino)-3-((trifluoromethyl)sulfonyl)phenyl)sulfonyl)carbamoyl)phenyl)piperazin-1-yl)methyl)-2,3,4,5-tetrahydro-[1,1′-biphenyl]-4-carbonyl)piperazin-1-yl)-7-oxoheptanamido)-3,3-dimethylbutanoyl)-4-hydroxy-N—((S)-1-(4-(4-methylthiazol-5-yl)phenyl)ethyl)pyrrolidine-2-carboxamide] | 50 to 150 nM | 50 to 150 nM | – | –
4 | Cc1ncsc1-c1ccc([C@H](C)NC(=O)[C@@H]2C[C@@H](O)CN2C(=O)[C@@H](NC(=O)CCCCCCCCCC(=O)N2CCN(CC3(C)CCC(c4ccc(Cl)cc4)=C(CN4CCN(c5ccc(C(=O)NS(=O)(=O)c6ccc(N[C@H](CCN7CCOCC7)CSc7ccccc7)c(S(=O)(=O)C(F)(F)F)c6)cc5)CC4)C3)CC2)C(C)(C)C)cc1 (stereo partly drawn) [degrader #20, (2S,4R)-1-((2S)-2-(11-(4-((4′-chloro-4-methyl-6-((4-(4-(((4-(((R)-4-morpholino-1-(phenylthio)butan-2-yl)amino)-3-((trifluoromethyl)sulfonyl)phenyl)sulfonyl)carbamoyl)phenyl)piperazin-1-yl)methyl)-2,3,4,5-tetrahydro-[1,1′-biphenyl]-4-yl)methyl)piperazin-1-yl)-11-oxoundecanamido)-3,3-dimethylbutanoyl)-4-hydroxy-N—((S)-1-(4-(4-methylthiazol-5-yl)phenyl)ethyl)pyrrolidine-2-carboxamide] | 150 to 500 nM | 150 to 500 nM | – | –
5 | Cc1ncsc1-c1ccc([C@H](C)NC(=O)[C@@H]2C[C@@H](O)CN2C(=O)[C@@H](NC(=O)CCCCCC(=O)N2CC3(CCN(CC4(C)CCC(c5ccc(Cl)cc5)=C(CN5CCN(c6ccc(C(=O)NS(=O)(=O)c7ccc(N[C@H](CCN8CCOCC8)CSc8ccccc8)c(S(=O)(=O)C(F)(F)F)c7)cc6)CC5)C4)CC3)C2)C(C)(C)C)cc1 (stereo partly drawn) [degrader #31, (2S,4R)-1-((2S)-2-(7-(7-((4′-chloro-4-methyl-6-((4-(4-(((4-(((R)-4-morpholino-1-(phenylthio)butan-2-yl)amino)-3-((trifluoromethyl)sulfonyl)phenyl)sulfonyl)carbamoyl)phenyl)piperazin-1-yl)methyl)-2,3,4,5-tetrahydro-[1,1′-biphenyl]-4-yl)methyl)-2,7-diazaspiro[3.5]nonan-2-yl)-7-oxoheptanamido)-3,3-dimethylbutanoyl)-4-hydroxy-N—((S)-1-(4-(4-methylthiazol-5-yl)phenyl)ethyl)pyrrolidine-2-carboxamide] | 50 to 150 nM | < 50 nM | – | –

Continued, in another order:

Row | IC50 ([1]; Homo sapiens, MOLT-4, 48 h) | IC50 ([2]; Homo sapiens, RS4-11, 48 h) | Molecule | IC50 [1] | IC50 [2]
6 | > 500 nM | > 500 nM | Cc1ncsc1-c1ccc([C@H](C)NC(=O)[C@@H]2C[C@@H](O)CN2C(=O)[C@@H](NC(=O)COCCOCCOCCOCCOCC(=O)NCC2(C)CCC(c3ccc(Cl)cc3)=C(CN3CCN(c4ccc(C(=O)NS(=O)(=O)c5ccc(N[C@H](CCN6CCOCC6)CSc6ccccc6)c(S(=O)(=O)C(F)(F)F)c5)cc4)CC3)C2)C(C)(C)C)cc1 (stereo partly drawn) [degrader #10, N1-((4′-chloro-4-methyl-6-((4-(4-(((4-(((R)-4-morpholino-1-(phenylthio)butan-2-yl)amino)-3-((trifluoromethyl)sulfonyl)phenyl)sulfonyl)carbamoyl)phenyl)piperazin-1-yl)methyl)-2,3,4,5-tetrahydro-[1,1′-biphenyl]-4-yl)methyl)-N17-((S)-1-((2S,4R)-4-hydroxy-2-(((S)-1-(4-(4-methylthiazol-5-yl)phenyl)ethyl)carbamoyl)pyrrolidin-1-yl)-3,3-dimethyl-1-oxobutan-2-yl)-3,6,9,12,15-pentaoxaheptadecanediamide] | – | –
7 | > 500 nM | 150 to 500 nM | Cc1ncsc1-c1ccc([C@H](C)NC(=O)[C@@H]2C[C@@H](O)CN2C(=O)[C@@H](NC(=O)CCCN2CCN(CC3(C)CCC(c4ccc(Cl)cc4)=C(CN4CCN(c5ccc(C(=O)NS(=O)(=O)c6ccc(N[C@H](CCN7CCOCC7)CSc7ccccc7)c(S(=O)(=O)C(F)(F)F)c6)cc5)CC4)C3)CC2)C(C)(C)C)cc1 (stereo partly drawn) [compound 68, (2S,4R)-1-((2S)-2-(4-(4-((4′-chloro-4-methyl-6-((4-(4-(((4-(((R)-4-morpholino-1-(phenylthio)butan-2-yl)amino)-3-((trifluoromethyl)sulfonyl)phenyl)sulfonyl)carbamoyl)phenyl)piperazin-1-yl)methyl)-2,3,4,5-tetrahydro-[1,1′-biphenyl]-4-yl)methyl)piperazin-1-yl)butanamido)-3,3-dimethylbutanoyl)-4-hydroxy-N—((S)-1-(4-(4-methylthiazol-5-yl)phenyl)ethyl)pyrrolidine-2-carboxamide] | – | –
8 | 150 to 500 nM | 50 to 150 nM | Cc1ncsc1-c1ccc([C@H](C)NC(=O)[C@@H]2C[C@@H](O)CN2C(=O)[C@@H](NC(=O)CCCCCC(=O)N[C@H]2CCCN(CC3(C)CCC(c4ccc(Cl)cc4)=C(CN4CCN(c5ccc(C(=O)NS(=O)(=O)c6ccc(N[C@H](CCN7CCOCC7)CSc7ccccc7)c(S(=O)(=O)C(F)(F)F)c6)cc5)CC4)C3)C2)C(C)(C)C)cc1 (stereo partly drawn) [degrader #46, N1-((3S)-1-((4′-chloro-4-methyl-6-((4-(4-(((4-(((R)-4-morpholino-1-(phenylthio)butan-2-yl)amino)-3-((trifluoromethyl)sulfonyl)phenyl)sulfonyl)carbamoyl)phenyl)piperazin-1-yl)methyl)-2,3,4,5-tetrahydro-[1,1′-biphenyl]-4-yl)methyl)piperidin-3-yl)-N7-((S)-1-((2S,4R)-4-hydroxy-2-(((S)-1-(4-(4-methylthiazol-5-yl)phenyl)ethyl)carbamoyl)pyrrolidin-1-yl)-3,3-dimethyl-1-oxobutan-2-yl)heptanediamide] | – | –
9 | 150 to 500 nM | 50 to 150 nM | Cc1ncsc1-c1ccc([C@H](C)NC(=O)[C@@H]2C[C@@H](O)CN2C(=O)[C@@H](NC(=O)CCCC(=O)N2CCN(CC3(C)CCC(c4ccc(Cl)cc4)=C(CN4CCN(c5ccc(C(=O)NS(=O)(=O)c6ccc(N[C@H](CCN7CCOCC7)CSc7ccccc7)c(S(=O)(=O)C(F)(F)F)c6)cc5)CC4)C3)CC2)C(C)(C)C)cc1 (stereo partly drawn) [degrader #14, (2S,4R)-1-((2S)-2-(5-(4-((4′-chloro-4-methyl-6-((4-(4-(((4-(((R)-4-morpholino-1-(phenylthio)butan-2-yl)amino)-3-((trifluoromethyl)sulfonyl)phenyl)sulfonyl)carbamoyl)phenyl)piperazin-1-yl)methyl)-2,3,4,5-tetrahydro-[1,1′-biphenyl]-4-yl)methyl)piperazin-1-yl)-5-oxopentanamido)-3,3-dimethylbutanoyl)-4-hydroxy-N—((S)-1-(4-(4-methylthiazol-5-yl)phenyl)ethyl)pyrrolidine-2-carboxamide] | – | –
10 | > 500 nM | > 500 nM | Cc1ncsc1-c1ccc([C@H](C)NC(=O)[C@@H]2C[C@@H](O)CN2C(=O)[C@@H](NC(=O)COCCOCCOCCOC(=O)N2CCC(c3ccc(Cl)cc3)=C(CN3CCN(c4ccc(C(=O)NS(=O)(=O)c5ccc(N[C@H](CCN6CCOCC6)CSc6ccccc6)c(S(=O)(=O)C(F)(F)F)c5)cc4)CC3)C2)C(C)(C)C)cc1 [compound 86, (S)-13-((2S,4R)-4-hydroxy-2-(((S)-1-(4-(4-methylthiazol-5-yl)phenyl)ethyl)carbamoyl)pyrrolidine-1-carbonyl)-14,14-dimethyl-11-oxo-3,6,9-trioxa-12-azapentadecyl 4-(4-chlorophenyl)-5-((4-(4-(((4-(((R)-4-morpholino-1-(phenylthio)butan-2-yl)amino)-3-((trifluoromethyl)sulfonyl)phenyl)sulfonyl)carbamoyl)phenyl)piperazin-1-yl)methyl)-3,6-dihydropyridine-1(2H)-carboxylate] | – | –
11 | 50 to 150 nM | 50 to 150 nM | Cc1ncsc1-c1ccc([C@H](C)NC(=O)[C@@H]2C[C@@H](O)CN2C(=O)[C@@H](NC(=O)CCCCCCCN2CCN(CC3(C)CCC(c4ccc(Cl)cc4)=C(CN4CCN(c5ccc(C(=O)NS(=O)(=O)c6ccc(N[C@H](CCN7CCOCC7)CSc7ccccc7)c(S(=O)(=O)C(F)(F)F)c6)cc5)CC4)C3)CC2)C(C)(C)C)cc1 (stereo partly shown) [Compound 53] | – | –
